Data on 28 compounds can be found in patent US12612409B2, “Pyrrolopyrimidines as CFTR potentiators” (Cystic Fibrosis Foundation, priority 2016, dated 2026).

Experiment [1] addresses T1, CFTR in F508del/F508del primary CF hBE cells (Homo sapiens, UniProt P13569, DEL508-508).
T1 construct: Primary cystic fibrosis human bronchial epithelial (CF hBE) cells were expanded and cultured; endogenous in cells; host or cells: primary CF human bronchial epithelial cells, genotype F508del/F508del
As to the kind of experiment: Ussing chamber electrophysiology assay of CFTR potentiation in F508del/F508del CF bronchial epithelial cells (27° C.). It counts as cell-based. Put shortly:
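Short-circuit current was recorded under zero-voltage clamp across primary CF bronchial epithelia cultured >30 days at air/liquid interface, bathed apically and basolaterally in HEPES-buffered saline. Sequential additions: amiloride (30 uM), forskolin (10 uM), compound at 4 increasing levels, CFTRinh-172 (20 uM). Responses normalised between DMSO (0%) and maximal positive-control potentiator (100%).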

For experiment [2], the target named is T2, recombinant F508del V470 CFTR in Fischer rat thyroid (FRT) cells (Homo sapiens, UniProt P13569, DEL508-508).
T2 construct: expressed in transfected cells
As to the kind of experiment: FRT ion flux assay of F508del CFTR potentiation. The class given is cell-based. Conditions: FRT cells expressing F508del V470 CFTR, forskolin 20 uM, 27° C. pre-incubation. Put shortly:
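Potentiation read as YFP quench ~21 s after iodide buffer addition, as second/initial fluorescence ratio normalised between DMSO (0%) and reference potentiator (100%).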

T1 sequence (P13569 with tags, fused parts or gaps DEL508-508): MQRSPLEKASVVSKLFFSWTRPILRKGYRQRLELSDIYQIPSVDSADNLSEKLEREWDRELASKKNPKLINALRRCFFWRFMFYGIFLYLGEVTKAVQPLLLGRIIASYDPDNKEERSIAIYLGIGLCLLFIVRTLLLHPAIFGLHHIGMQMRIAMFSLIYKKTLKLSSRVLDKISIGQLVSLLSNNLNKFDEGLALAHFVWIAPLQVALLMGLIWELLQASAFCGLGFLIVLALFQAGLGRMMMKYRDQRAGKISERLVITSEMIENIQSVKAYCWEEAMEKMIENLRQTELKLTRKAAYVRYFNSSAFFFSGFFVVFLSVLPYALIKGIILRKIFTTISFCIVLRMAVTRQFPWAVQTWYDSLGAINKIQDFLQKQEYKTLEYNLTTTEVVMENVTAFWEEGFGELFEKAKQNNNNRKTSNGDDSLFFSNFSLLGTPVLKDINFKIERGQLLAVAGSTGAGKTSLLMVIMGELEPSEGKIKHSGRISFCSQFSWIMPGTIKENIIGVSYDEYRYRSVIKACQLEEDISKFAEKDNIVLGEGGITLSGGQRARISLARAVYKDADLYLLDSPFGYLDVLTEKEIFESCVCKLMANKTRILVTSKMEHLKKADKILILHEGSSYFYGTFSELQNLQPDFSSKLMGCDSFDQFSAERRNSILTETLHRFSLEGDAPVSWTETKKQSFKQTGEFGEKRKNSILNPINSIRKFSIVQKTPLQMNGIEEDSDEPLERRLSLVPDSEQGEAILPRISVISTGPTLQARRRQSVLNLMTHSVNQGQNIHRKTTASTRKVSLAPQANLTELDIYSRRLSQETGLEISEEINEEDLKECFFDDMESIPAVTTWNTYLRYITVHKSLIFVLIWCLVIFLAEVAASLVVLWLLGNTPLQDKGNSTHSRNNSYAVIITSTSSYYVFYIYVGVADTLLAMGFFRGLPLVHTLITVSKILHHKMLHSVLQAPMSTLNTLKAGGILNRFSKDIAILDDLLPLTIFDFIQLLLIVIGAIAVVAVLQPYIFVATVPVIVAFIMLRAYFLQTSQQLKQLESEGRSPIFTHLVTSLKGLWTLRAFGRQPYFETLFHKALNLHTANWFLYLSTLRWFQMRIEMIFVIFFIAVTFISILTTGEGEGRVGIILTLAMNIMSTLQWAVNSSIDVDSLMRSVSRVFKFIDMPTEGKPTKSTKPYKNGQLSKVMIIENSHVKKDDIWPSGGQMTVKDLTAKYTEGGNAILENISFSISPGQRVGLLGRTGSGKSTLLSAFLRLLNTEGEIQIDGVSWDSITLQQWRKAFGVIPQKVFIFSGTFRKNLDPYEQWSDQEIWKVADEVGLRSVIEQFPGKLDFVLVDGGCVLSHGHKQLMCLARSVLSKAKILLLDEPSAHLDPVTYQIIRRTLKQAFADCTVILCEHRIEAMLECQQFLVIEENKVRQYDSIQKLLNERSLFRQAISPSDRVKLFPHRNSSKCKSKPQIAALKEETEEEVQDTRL
T2 sequence (P13569 with tags, fused parts or gaps DEL508-508): as above

By EC50 is commonly meant the concentration needed to bring the measured effect to its halfway point. Consider `COc1nc(C(F)(F)F)ncc1-c1cn(Cc2cn(-c3ccccc3F)nn2)c2ncnc(N)c12` [Example 252, 7-{[1-(2-Fluorophenyl)-1H-1,2,3-triazol-4-yl]methyl}-5-[4-methoxy-2-(trifluoromethyl)pyrimidin-5-yl]-7H-pyrrolo[2,3-d]pyrimidin-4-amine], for which the concentration giving a half-maximal response (EC50) in experiment [1] was 23.9 nM; in experiment [2], 27.6 nM.
As for `COc1ncccc1-c1cn(Cc2nnc(-c3ccccc3F)[nH]2)c2ncnc(N)c12` [Example 253, 7-{[5-(2-Fluorophenyl)-4H-1,2,4-triazol-3-yl]methyl}-5-(2-methoxypyridin-3-yl)-7H-pyrrolo[2,3-d]pyrimidin-4-amine], the EC50 in experiment [1] was determined as 1340 nM; in experiment [2], 719 nM.
The like results for `CC(C)n1cc(Cn2cc(-c3ccc(Cl)cc3)c3c(N)ncnc32)cn1` [Example 254, 5-(4-Chlorophenyl)-7-{[1-(propan-2-yl)-1H-pyrazol-4-yl]methyl}-7H-pyrrolo[2,3-d]pyrimidin-4-amine] were, in that order, 140 nM and 422 nM.
Consider `CC(c1cn(CC2CCC2)nn1)n1cc(-c2ccc(Cl)cc2)c2c(N)ncnc21` (centres unmarked) [Example 255, 5-(4-Chlorophenyl)-7-{1-[1-(cyclobutylmethyl)-1H-1,2,3-triazol-4-yl]ethyl}-7H-pyrrolo[2,3-d]pyrimidin-4-amine], for which the EC50 in experiment [1] is 64.7 nM; in experiment [2] it was 259 nM.
Take `CC(C)(c1cn(-c2ccccc2F)nn1)n1cc(-c2ccc(Cl)cc2)c2c(N)ncnc21` [Example 256, 5-(4-Chlorophenyl)-7-{2-[1-(2-fluorophenyl)-1H-1,2,3-triazol-4-yl]propan-2-yl}-7H-pyrrolo[2,3-d]pyrimidin-4-amine]: the EC50 was found to be 45 nM in experiment [1] and 341 nM in experiment [2].
For `Cc1c(-c2ccc(Cl)cc2)c2c(N)ncnc2n1C(C)c1cn(-c2ccccc2F)nn1` (centres unmarked) [Example 257, 5-(4-Chlorophenyl)-7-{1-[1-(2-fluorophenyl)-1H-1,2,3-triazol-4-yl]ethyl}-6-methyl-7H-pyrrolo[2,3-d]pyrimidin-4-amine], in that order: 38.3 nM and 289 nM.
For `CC(c1cc(-c2ccccc2F)no1)n1cc(-c2ccc(Cl)cc2)c2c(N)ncnc21` (centres unmarked) [Example 258, 5-(4-Chlorophenyl)-7-{1-[3-(2-fluorophenyl)-1,2-oxazol-5-yl]ethyl}-7H-pyrrolo[2,3-d]pyrimidin-4-amine], in that order: 147 nM and 343 nM.
The like results for `Cc1c(-c2ccc(Cl)cc2)c2c(N)ncnc2n1C(C)c1cc(-c2ccccc2F)no1` (centres unmarked) [Example 259, 5-(4-Chlorophenyl)-7-{1-[3-(2-fluorophenyl)-1,2-oxazol-5-yl]ethyl}-6-methyl-7H-pyrrolo[2,3-d]pyrimidin-4-amine] were, in that order, 52 nM and 206 nM.
As for `COc1ccccc1-c1cc(C(C)n2cc(-c3ccc(Cl)cc3)c3c(N)ncnc32)on1` (centres unmarked) [Example 260, 5-(4-Chlorophenyl)-7-{1-[3-(2-methoxyphenyl)-1,2-oxazol-5-yl]ethyl}-7H-pyrrolo[2,3-d]pyrimidin-4-amine], the EC50 in experiment [1] amounted to 110 nM; in experiment [2], 197 nM.
`COc1cccc(-c2cc(C(C)n3cc(-c4ccc(Cl)cc4)c4c(N)ncnc43)on2)c1` (centres unmarked) [Example 261, 5-(4-Chlorophenyl)-7-{1-[3-(3-methoxyphenyl)-1,2-oxazol-5-yl]ethyl}-7H-pyrrolo[2,3-d]pyrimidin-4-amine]: the EC50 in experiment [1] was 232 nM; in experiment [2] it was 169 nM.
The like results for `Nc1ncnc2c1c(-c1ccc(Cl)cc1)cn2Cc1cnn(-c2ccccc2F)c1` [Example 262, 5-(4-Chlorophenyl)-7-{[1-(2-fluorophenyl)-1H-pyrazol-4-yl]methyl}-7H-pyrrolo[2,3-d]pyrimidin-4-amine] were, in that order, 60.2 nM and 313 nM.
The like results for `Nc1ncnc2c1c(-c1ccc(Cl)cc1)cn2Cc1cnc(-c2ccccc2F)[nH]1` [Example 263, 5-(4-Chlorophenyl)-7-{[2-(2-fluorophenyl)-1H-imidazol-5-yl]methyl}-7H-pyrrolo[2,3-d]pyrimidin-4-amine] were, in that order, 21.6 nM and 199 nM.
For `Nc1ncnc2c1c(-c1ccc(Cl)cc1)cn2Cc1cnc(-c2ccccc2)[nH]1` [Example 264, 5-(4-Chlorophenyl)-7-[(2-phenyl-1H-imidazol-5-yl)methyl]-7H-pyrrolo[2,3-d]pyrimidin-4-amine], in that order: 35.4 nM and 176 nM.
In the case of `Cc1ccccc1-c1cc(C(C)n2cc(-c3ccc(Cl)cc3)c3c(N)ncnc32)on1` (centres unmarked) [Example 266, 5-(4-Chlorophenyl)-7-{1-[3-(2-methylphenyl)-1,2-oxazol-5-yl]ethyl}-7H-pyrrolo[2,3-d]pyrimidin-4-amine], the EC50 was determined as 253 nM in experiment [1] and 138 nM in experiment [2].
For `CC(c1cc(-c2cccc(F)c2)no1)n1cc(-c2ccc(Cl)cc2)c2c(N)ncnc21` (centres unmarked) [Example 267, 5-(4-Chlorophenyl)-7-{1-[3-(3-fluorophenyl)-1,2-oxazol-5-yl]ethyl}-7H-pyrrolo[2,3-d]pyrimidin-4-amine], in that order: 136 nM and 1120 nM.
For the compound `COc1ncccc1-c1cn(Cc2ccn(-c3ccccc3F)n2)c2ncnc(N)c12` [Example 268, 7-{[1-(2-Fluorophenyl)-1H-pyrazol-3-yl]methyl}-5-(2-methoxypyridin-3-yl)-7H-pyrrolo[2,3-d]pyrimidin-4-amine], the results for the concentration giving a half-maximal response (EC50) in experiment [1] and in experiment [2] were 578 nM and 470 nM, respectively.
The like results for `Nc1ncnc2c1c(-c1ccc(Cl)cc1)cn2Cc1cc(C2CCCCC2)no1` [Example 269, 5-(4-Chlorophenyl)-7-[(3-cyclohexyl-1,2-oxazol-5-yl)methyl]-7H-pyrrolo[2,3-d]pyrimidin-4-amine] were, in that order, 22.7 nM and 478 nM.
Turning to `COc1ncccc1-c1cn(Cc2cnn(-c3ccc(C(F)F)cc3)c2)c2ncnc(N)c12` [Example 270, 7-({1-[4-(Difluoromethyl)phenyl]-1H-pyrazol-4-yl}methyl)-5-(2-methoxypyridin-3-yl)-7H-pyrrolo[2,3-d]pyrimidin-4-amine], the figures for the 50% effective concentration (EC50) in experiment [1] and in experiment [2] were 47.7 nM and 451 nM, respectively.
Take `COc1ncccc1-c1cn(Cc2nnc(-c3ccccc3)[nH]2)c2ncnc(N)c12` [Example 272, 5-(2-Methoxypyridin-3-yl)-7-[(5-phenyl-4H-1,2,4-triazol-3-yl)methyl]-7H-pyrrolo[2,3-d]pyrimidin-4-amine]: the concentration for a half-maximal effect (EC50) in experiment [1] is 833 nM; in experiment [2] it was 398 nM.
Turning to `COc1ccc(-c2c(C)n(Cc3cn(-c4ccc(F)cc4F)nn3)c3ncnc(N)c23)cn1` [Example 278, 7-{[1-(2,4-Difluorophenyl)-1H-1,2,3-triazol-4-yl]methyl}-5-(6-methoxypyridin-3-yl)-6-methyl-7H-pyrrolo[2,3-d]pyrimidin-4-amine], the values for the EC50 in experiment [1] and in experiment [2] were 152 nM and 219 nM, respectively.
For `Nc1ncnc2c1c(-c1ccc(Cl)cc1)cn2Cc1cc(C2CC2)no1` [Example 280, 5-(4-Chlorophenyl)-7-[(3-cyclopropyl-1,2-oxazol-5-yl)methyl]-7H-pyrrolo[2,3-d]pyrimidin-4-amine], in that order: 127 nM and 2670 nM.
The like results for `Nc1ncnc2c1c(-c1ccc(Cl)cc1)cn2Cc1nc(-c2ccccc2)c[nH]1` [Example 282, 5-(4-Chlorophenyl)-7-[(4-phenyl-1H-imidazol-2-yl)methyl]-7H-pyrrolo[2,3-d]pyrimidin-4-amine] were, in that order, 216 nM and 909 nM.
For `CC(C)c1cc(Cn2cc(-c3ccc(Cl)cc3)c3c(N)ncnc32)on1` [Example 283, 5-(4-Chlorophenyl)-7-{[3-(propan-2-yl)-1,2-oxazol-5-yl]methyl}-7H-pyrrolo[2,3-d]pyrimidin-4-amine], in that order: 111 nM and 659 nM.
As to `Nc1ncnc2c1c(-c1ccc(Cl)cc1)cn2Cc1ncc(-c2ccccc2F)[nH]1` [Example 285, 5-(4-Chlorophenyl)-7-{[5-(2-fluorophenyl)-1H-imidazol-2-yl]methyl}-7H-pyrrolo[2,3-d]pyrimidin-4-amine], the EC50 in experiment [1] was found to be 3500 nM; in experiment [2], 3690 nM.
For `COc1ncccc1-c1cn(Cc2cnn(-c3c(F)cccc3F)c2)c2ncnc(N)c12` [Example 286, 7-{[1-(2,6-Difluorophenyl)-1H-pyrazol-4-yl]methyl}-5-(2-methoxypyridin-3-yl)-7H-pyrrolo[2,3-d]pyrimidin-4-amine], in that order: 176 nM and 81 nM.
For the compound `CC(c1cn(-c2ncccc2F)nn1)n1cc(-c2ccc(Cl)cc2)c2c(N)ncnc21` (centres unmarked) [Example 287, 5-(4-Chlorophenyl)-7-{1-[1-(3-fluoropyridin-2-yl)-1H-1,2,3-triazol-4-yl]ethyl}-7H-pyrrolo[2,3-d]pyrimidin-4-amine], the EC50 in experiment [1] worked out at 254 nM; in experiment [2], 112 nM.
The like results for `CC(c1cn(-c2ncccc2F)nn1)n1ccc2c(Nc3ccc(OC4CC4)cc3)ncnc21` (centres unmarked) [Example 288, [4-(Cyclopropyloxy)phenyl]-7-{1-[1-(3-fluoropyridin-2-yl)-1H-1,2,3-triazol-4-yl]ethyl}-7H-pyrrolo[2,3-d]pyrimidin-4-amine] were, in that order, 39.6 nM and 90.6 nM.
The like results for `Nc1ncnc2c1c(C1CC1)cn2Cc1cn(-c2ccccc2F)nn1` [Example 289, 5-Cyclopropyl-7-{[1-(2-fluorophenyl)-1H-1,2,3-triazol-4-yl]methyl}-7H-pyrrolo[2,3-d]pyrimidin-4-amine] were, in that order, 342 nM and 142 nM.
